How the values were obtained:
patients with cGVHD = test: Example 1: Global Severity Rating and participant self-reported symptom activity; type: in vivo, human
Protocol: Maximal Improvement from Baseline in Global Severity Rating (GSR) by Clinician-reported cGVHD Assessment. The GSR assessment was performed by asking the participants to rate their disease severity of cGVHD symptoms on a 0 to 10-point numeric rating scale, where score 0 indicated ‘not at all severe cGVHD symptoms’ and score 10 indicated ‘most severe cGVHD symptoms possible’. The response was defined using the scores from 9 organs: skin, eyes, mouth, esophagus, upper gastrointestinal (GI) track, lower GI tract, liver, lungs, and joints and fascia plus GSR. End of treatment (EOT) visit was performed within 3 days after the participant's last dose of study drug. Baseline value was defined as valid and last non-missing value obtained within 28 days prior to participant receiving first study medication. […] Analysis was performed on mITT population.
Number of Participants With Maximal Improvement From Baseline in Symptom Activity by cGVHD Activity Assessment Participant Self-Report. cGVHD symptom severity was self-reported by participants. Participants were asked to rate their disease symptom severity over the last week on the following questions: skin itching at its worst, moth dryness at its worst, mouth pain at its worst, mouth sensitivity at its worst, main compliant on eyes, symptom severity on eyes. The severity rating was done on a 0 to 10-point numeric rating scare, where score 0 indicated ‘not at all severe cGVHD symptoms’ and score 10 indicated ‘most severe cGVHD symptoms possible’. EOT visit was performed within 3 days after the participant's last dose of study drug. Baseline value was defined as valid and last non-missing value obtained within 28 days prior to participant receiving first study medication. […] Analysis was performed on mITT population.

subjects with BOS = test: Example 3 combined analysis: lung-specific NIH response in BOS; type: in vivo, human
Protocol: Subjects enrolled in the clinical studies described in Examples 1 and 2 served as the population for the combined analysis.
Patients with BOS were identified as: 1) % predicted forced expiratory volume in 1 second (% FEV1) of £79% at enrollment, and 2) clinician attribution of lung disease due to cGVHD.
In Example 1, lung function assessments were conducted at baseline and on Day 1 of each cycle for patients with suspected of known lung involvement. In Example 2, lung function assessments were conducted at baseline and at the time of response assessments: Day 1 of cycles 2-5 and then on Day 1 of every other cycle thereafter.
The severity of cGVHD was graded according to the 2014 NIH Consensus Criteria. […] According to these criteria, a complete response (CR) in the lung is defined as normal % FEV1 after previous involvement or in the absence of PFTs, a NIH lung Symptom Score of 0 after previous involvement. Partial response (PR) in the lung is defined as an increase by 10% predicted absolute value of % FEV1 or in the absence of PFTs, a decrease in NIH Lung Symptom Score by 1 or more points. Progression of lung disease is defined as a decrease by 10% predicted absolute value of % FEV1 or in the absence of PFTs, an increase in NIH Lung Symptom Score by 1 or more points, except 0 to 1.
Baseline characteristics were reported descriptively. Univariable and multivariable logistic regression analysis was performed to investigate clinical factors (listed in Table 1) that were associated with NIH lung response. Correlation analysis was performed to assess correlation among lung response metrics. All testing was two-sided at the significance level of 0.05. All analyses were performed using SAS 9.3 (SAS Institute Inc., Cary, NC), and R v3.5.2 (the CRAN project).

[1] = NIH Lung Score at baseline 1, 30 subjects
[2] = NIH Lung Score at baseline 2, 23 subjects
[3] = NIH Lung Score at baseline 3, 6 subjects

## CC(C)NC(=O)COc1cccc(-c2nc(Nc3ccc4[nH]ncc4c3)c3ccccc3n2)c1 [Belumosudil, 2-{3-[4-(1H-indazol-5-ylamino)-2-quinazolinyl]phenoxy}-N-(propan-2-yl) acetamide]
Patients with cGVHD; Cohort 1 200 mg QD
  Maximal improvement from baseline in GSR of 0: 5 (29%) participants
  Maximal improvement from baseline in GSR of 1: 0 (0%) participants
  Maximal improvement from baseline in GSR of 3: 0 (0%) participants
  Maximal improvement from baseline in GSR of −1: 1 (6%) participants
  Maximal improvement from baseline in GSR of −2: 2 (12%) participants
  Maximal improvement from baseline in GSR of −4: 2 (12%) participants
  Maximal improvement from baseline in GSR of −5: 2 (12%) participants
  Maximal improvement from baseline in GSR of −6: 0 (0%) participants
  Maximal improvement from baseline in GSR of −7: 0 (0%) participants
  Maximal improvement in self-reported symptom activity of 0: 1 participants
  Maximal improvement in self-reported symptom activity of 1: 0 participants
  Maximal improvement in self-reported symptom activity of 2: 0 participants
  Maximal improvement in self-reported symptom activity of 4: 1 participants
  Maximal improvement in self-reported symptom activity of −1: 2 participants
  Maximal improvement in self-reported symptom activity of −2: 2 participants
  Maximal improvement in self-reported symptom activity of −3: 2 participants
  Maximal improvement in self-reported symptom activity of −4: 2 participants
  Maximal improvement in self-reported symptom activity of −5: 2 participants
  Maximal improvement in self-reported symptom activity of −6: 0 participants
  Maximal improvement in self-reported symptom activity of −7: 3 participants
  Maximal improvement in self-reported symptom activity of −8: 0 participants
Patients with cGVHD; Cohort 2 200 mg BID
  Maximal improvement from baseline in GSR of 0: 4 (25%) participants
  Maximal improvement from baseline in GSR of 1: 1 (6%) participants
  Maximal improvement from baseline in GSR of 3: 1 (6%) participants
  Maximal improvement from baseline in GSR of −1: 2 (13%) participants
  Maximal improvement from baseline in GSR of −2: 4 (25%) participants
  Maximal improvement from baseline in GSR of −3: 0 (0%) participants
  Maximal improvement from baseline in GSR of −4: 0 (0%) participants
  Maximal improvement from baseline in GSR of −5: 2 (13%) participants
  Maximal improvement from baseline in GSR of −6: 2 (13%) participants
  Maximal improvement from baseline in GSR of −7: 0 (0%) participants
  Maximal improvement in self-reported symptom activity of 0: 1 participants
  Maximal improvement in self-reported symptom activity of 1: 0 participants
  Maximal improvement in self-reported symptom activity of 2: 1 participants
  Maximal improvement in self-reported symptom activity of 4: 0 participants
  Maximal improvement in self-reported symptom activity of −1: 2 participants
  Maximal improvement in self-reported symptom activity of −2: 3 participants
  Maximal improvement in self-reported symptom activity of −3: 2 participants
  Maximal improvement in self-reported symptom activity of −4: 2 participants
  Maximal improvement in self-reported symptom activity of −5: 0 participants
  Maximal improvement in self-reported symptom activity of −6: 1 participants
  Maximal improvement in self-reported symptom activity of −7: 2 participants
  Maximal improvement in self-reported symptom activity of −8: 0 participants
Patients with cGVHD; Cohort 3 400 mg QD
  Maximal improvement from baseline in GSR of 0: 3 (14%) participants
  Maximal improvement from baseline in GSR of 1: 1 (5%) participants
  Maximal improvement from baseline in GSR of 3: 0 (0%) participants
  Maximal improvement from baseline in GSR of −1: 4 (19%) participants
  Maximal improvement from baseline in GSR of −2: 4 (19%) participants
  Maximal improvement from baseline in GSR of −3: 1 (5%) participants
  Maximal improvement from baseline in GSR of −4: 3 (14%) participants
  Maximal improvement from baseline in GSR of −5: 0 (0%) participants
  Maximal improvement from baseline in GSR of −6: 0 (0%) participants
  Maximal improvement from baseline in GSR of −7: 2 (10%) participants
  Maximal improvement in self-reported symptom activity of 0: 0 participants
  Maximal improvement in self-reported symptom activity of 1: 1 participants
  Maximal improvement in self-reported symptom activity of 2: 2 participants
  Maximal improvement in self-reported symptom activity of 4: 0 participants
  Maximal improvement in self-reported symptom activity of −1: 2 participants
  Maximal improvement in self-reported symptom activity of −2: 2 participants
  Maximal improvement in self-reported symptom activity of −3: 2 participants
  Maximal improvement in self-reported symptom activity of −4: 1 participants
  Maximal improvement in self-reported symptom activity of −5: 2 participants
  Maximal improvement in self-reported symptom activity of −6: 4 participants
  Maximal improvement in self-reported symptom activity of −7: 0 participants
  Maximal improvement in self-reported symptom activity of −8: 1 participants
Subjects with BOS; 59 subjects
  Best ORR for pulmonary cGVHD, NIH response criteria: 32%
  PR for pulmonary cGVHD, NIH response criteria: 17%
Subjects with BOS; [1]
  Lung-specific NIH response, Best ORR: 50%
  Lung-specific NIH response, CR rate: 27%
  Lung-specific NIH response, PR rate: 23%
Subjects with BOS; [2]
  Lung-specific NIH response, Best ORR: 17%
  Lung-specific NIH response, CR rate: 4%
  Lung-specific NIH response, PR rate: 13%
Subjects with BOS; [3]
  Lung-specific NIH response, Best ORR: 0%
  Lung-specific NIH response, CR rate: 0%
  Lung-specific NIH response, PR rate: 0%
Subjects with BOS; Total, 59 subjects
  Lung-specific NIH response, Best ORR: 32%
  Lung-specific NIH response, CR rate: 15%
  Lung-specific NIH response, PR rate: 17%
Subjects with BOS; baseline NIH lung score 1
  Best lung ORR: 50%
  Lung CR: 27%
  Lung PR: 23%
Subjects with BOS; baseline NIH lung score 2
  Best lung ORR: 17%
  Lung CR: 4%
  Lung PR: 13%
Subjects with BOS; in vivo
  Best ORR for lung cGVHD, NIH response with PFTs alone: 24%
  CR for lung cGVHD, PFTs alone: 10%
  PR for lung cGVHD, PFTs alone: 14%
Subjects with BOS; range, 3-39
  Median time to first NIH lung response: 5 cycles
Subjects with BOS; range, 3-41
  Median time to best NIH lung response: 7 cycles
